The values that follow come from patent US8648076B2, “Cysteine protease inhibitors and their therapeutic applications” (Hybrigenics SA, priority 2005, dated 2014).

pIC50: −log10 of the molar value. Where two headings read alike, the source gives them in different places.

Format in all cases: biochemical
The target of assay [1] is T1, USP7 (Homo sapiens, UniProt Q93009).
T1 construct: His tag (from pFastBac-HT vector) (N); made in house; host or cells: insect cells (Sf9 or High Five), baculovirus
The assay is described as follows: USP7 activity assay.

The target in assay [2] is T2, Uch-L3 (Homo sapiens, UniProt P15374).
T2 sequence (P15374 1-230): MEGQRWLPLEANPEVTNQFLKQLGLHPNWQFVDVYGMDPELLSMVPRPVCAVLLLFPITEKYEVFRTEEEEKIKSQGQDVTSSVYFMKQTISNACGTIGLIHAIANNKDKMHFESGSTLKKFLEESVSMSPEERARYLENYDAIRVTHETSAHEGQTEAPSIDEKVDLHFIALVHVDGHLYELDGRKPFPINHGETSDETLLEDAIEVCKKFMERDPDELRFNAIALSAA
The experiment in a line: UCH-L3 activity assay. The settings on record: 400 nM Ub-AMC, 13 pM enzyme, 30 min pre-incubation at 25° C., 60 min at 37° C.; sigmoidal fit; AF: Autofluorescent; read-out: Uch-L3 (inhibition of cysteine protease activity). Put shortly:
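Compounds were pre-incubated with 13 pM Uch-L3 for 30 min at 25° C in pH 7.6 buffer with 0.05 mg/ml BSA. Reactions ran 60 min at 37° C with 400 nM Ub-AMC, were stopped with 100 mM acetic acid, and AMC fluorescence was read. Duplicates were expressed as % of no-compound control and fitted to a variable-slope sigmoid.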

Assay [3] concerns the target T3, USP8 (Homo sapiens, UniProt P40818).
T3 sequence (P40818 1-1118): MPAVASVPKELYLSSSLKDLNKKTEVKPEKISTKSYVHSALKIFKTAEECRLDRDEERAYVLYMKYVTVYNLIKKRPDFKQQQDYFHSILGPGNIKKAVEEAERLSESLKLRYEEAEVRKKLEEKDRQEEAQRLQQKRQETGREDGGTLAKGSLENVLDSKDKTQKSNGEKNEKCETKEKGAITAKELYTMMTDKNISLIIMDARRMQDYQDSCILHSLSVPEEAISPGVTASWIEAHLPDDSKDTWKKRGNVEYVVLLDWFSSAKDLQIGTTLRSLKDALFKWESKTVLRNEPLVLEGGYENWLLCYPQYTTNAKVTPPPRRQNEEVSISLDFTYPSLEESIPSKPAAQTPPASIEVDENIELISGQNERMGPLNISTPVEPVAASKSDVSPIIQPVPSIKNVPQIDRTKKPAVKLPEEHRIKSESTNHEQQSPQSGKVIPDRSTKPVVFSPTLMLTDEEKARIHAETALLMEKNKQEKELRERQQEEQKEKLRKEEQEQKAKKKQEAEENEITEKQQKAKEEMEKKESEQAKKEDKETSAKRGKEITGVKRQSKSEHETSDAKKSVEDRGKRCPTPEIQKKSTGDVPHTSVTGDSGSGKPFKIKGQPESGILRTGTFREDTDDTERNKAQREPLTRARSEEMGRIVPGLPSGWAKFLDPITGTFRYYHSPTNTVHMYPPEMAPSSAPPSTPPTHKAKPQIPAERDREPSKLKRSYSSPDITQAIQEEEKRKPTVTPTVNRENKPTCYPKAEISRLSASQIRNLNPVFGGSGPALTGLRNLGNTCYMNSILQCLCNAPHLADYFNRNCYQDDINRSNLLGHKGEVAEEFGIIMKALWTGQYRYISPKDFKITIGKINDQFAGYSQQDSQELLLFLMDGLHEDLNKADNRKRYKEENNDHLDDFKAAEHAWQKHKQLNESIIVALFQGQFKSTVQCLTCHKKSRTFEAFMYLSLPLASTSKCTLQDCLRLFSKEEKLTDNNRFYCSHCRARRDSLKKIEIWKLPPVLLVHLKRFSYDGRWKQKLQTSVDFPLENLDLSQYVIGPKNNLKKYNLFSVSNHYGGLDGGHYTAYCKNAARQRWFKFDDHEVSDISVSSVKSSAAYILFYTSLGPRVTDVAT
The experiment in a line: USP8 activity assay. The settings on record: 400 nM Ub-AMC, pH8.8, 30 min pre-incubation at 25° C., 60 min at 37° C.; sigmoidal fit; AF: Autofluorescent; read-out: USP 8 (inhibition of cysteine protease activity).

Assay [4] has as its target T4, Caspase 3 (Homo sapiens, UniProt P42574).
T4 sequence (P42574 29-175 limits assumed): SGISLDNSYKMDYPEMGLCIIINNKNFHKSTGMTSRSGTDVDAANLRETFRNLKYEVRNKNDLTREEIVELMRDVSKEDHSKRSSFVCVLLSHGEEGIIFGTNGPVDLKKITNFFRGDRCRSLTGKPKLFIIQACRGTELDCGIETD
T4 sequence (P42574 176-277 limits assumed): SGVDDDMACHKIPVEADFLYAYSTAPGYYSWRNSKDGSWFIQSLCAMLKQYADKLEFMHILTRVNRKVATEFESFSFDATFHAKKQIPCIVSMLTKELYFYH
The experiment in a line: Caspase 3 activity assay. The settings on record: 500 nM Ac-DEVD-AMC, 3.2 nM enzyme, 30 min pre-incubation at 25° C., 60 min at 37° C.; sigmoidal fit; AF: Autofluorescent; read-out: Casp3 (inhibition of cysteine protease activity). The method, boiled down: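 Compounds were pre-incubated with caspase 3 for 30 min at 25 °C, then Ac-DEVD-AMC (500 nM) was added and reactions ran 60 min at 37 °C under initial-velocity conditions. Acetic acid stopped the reaction before AMC fluorescence was read. Activity as % of no-compound control was fitted to a variable-slope sigmoid.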

[5] abbreviates: 400 nM Ub-AMC, 152 pM enzyme, 30 min pre-incubation at 25° C., 60 min at 37° C., sigmoidal fit, read-out: USP 7 (inhibition of cysteine protease activity).

T1 sequence (Q93009 whole entry): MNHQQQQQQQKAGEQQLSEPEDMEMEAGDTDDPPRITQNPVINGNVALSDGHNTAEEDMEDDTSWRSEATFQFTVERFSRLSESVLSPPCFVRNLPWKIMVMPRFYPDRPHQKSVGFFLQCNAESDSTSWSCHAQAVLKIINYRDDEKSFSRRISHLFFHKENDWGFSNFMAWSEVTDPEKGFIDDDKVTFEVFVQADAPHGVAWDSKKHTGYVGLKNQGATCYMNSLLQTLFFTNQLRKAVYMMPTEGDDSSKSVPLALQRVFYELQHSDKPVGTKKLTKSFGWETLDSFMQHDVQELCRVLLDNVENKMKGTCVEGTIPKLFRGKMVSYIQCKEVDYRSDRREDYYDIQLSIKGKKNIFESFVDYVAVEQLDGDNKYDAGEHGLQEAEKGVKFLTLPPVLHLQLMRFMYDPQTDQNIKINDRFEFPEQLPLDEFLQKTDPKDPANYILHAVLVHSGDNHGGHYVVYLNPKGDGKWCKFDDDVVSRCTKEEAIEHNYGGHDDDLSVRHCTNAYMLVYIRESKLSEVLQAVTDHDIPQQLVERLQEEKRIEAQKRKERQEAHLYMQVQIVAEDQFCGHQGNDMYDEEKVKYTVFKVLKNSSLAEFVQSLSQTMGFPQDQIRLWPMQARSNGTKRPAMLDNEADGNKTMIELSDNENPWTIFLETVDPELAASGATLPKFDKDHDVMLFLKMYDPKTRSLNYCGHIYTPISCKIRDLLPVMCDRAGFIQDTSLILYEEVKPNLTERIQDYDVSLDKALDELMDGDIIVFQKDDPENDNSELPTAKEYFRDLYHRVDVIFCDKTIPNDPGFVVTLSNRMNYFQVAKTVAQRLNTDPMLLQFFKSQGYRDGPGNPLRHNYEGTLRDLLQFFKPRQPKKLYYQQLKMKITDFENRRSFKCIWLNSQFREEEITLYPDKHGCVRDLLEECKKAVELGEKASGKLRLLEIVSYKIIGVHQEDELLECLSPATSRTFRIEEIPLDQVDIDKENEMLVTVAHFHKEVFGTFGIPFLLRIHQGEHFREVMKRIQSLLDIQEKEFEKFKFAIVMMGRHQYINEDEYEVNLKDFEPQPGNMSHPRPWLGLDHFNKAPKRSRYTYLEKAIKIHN

Turning to `N#Cc1nc2c(nc1C#N)-c1cc(Cl)c(Cl)cc1C2=O` [Example 31, 6,7-dichloro-9-oxo-9H-indeno[1,2-b]pyrazine-2,3-dicarbonitrile], the pIC50 in assay [1] was 6.23; in assay [2] it was 6.98; in assay [3], 7.12; in assay [4] it was 6.80.

As to `CON=C1c2ccccc2-c2nc(C#N)c(C#N)nc21` [Example 13a, 9-(methoxyimino)-9H-indeno[1,2-b]pyrazine-2,3-dicarbonitrile], the pIC50 in assay [1] was < 4.00; in assay [2], 5.66; in assay [3], 6.01; in assay [4], 4.28.

As to `N#Cc1nc2c(nc1C#N)-c1ccccc1/C2=N/Oc1ccccc1` [Example 13e, 9-Phenoxyimino-9H-indeno[1,2-b]pyrazine-2,3-dicarbonitrile], the pIC50 is < 4.00 in assay [1] (setting [5]), 6.27 in assay [2], 6.62 in assay [3] and < 4.00 in assay [4].

In the case of `CCON=C1c2ccccc2-c2nc(C(N)=O)c(C#N)nc21` [Example 34b, 2-Cyano-9-ethoxyimino-9H-indeno[1,2-b]pyrazine-3-carboxylic acid amide], the pIC50 in assay [1] was 5.60; in assay [2], 7.00; in assay [3] it was 7.20; in assay [4], 6.20.

For `N#Cc1nc2c(nc1C#N)-c1ccccc1C2=NO` [Example 12, 9-[hydroxyimino]-9H-indeno[1,2-b]pyrazine-2,3-dicarbonitrile], the pIC50 in assay [1] (setting [5]) is < 4.00; in assay [2], 5.89; in assay [3] it was 5.15; in assay [4] it was 5.25.
